Assay results published in patent US10131652B2, “Pyrimidinyloxy benzene derivatives as herbicides” (E. I. DU PONT DE NEMOURS AND COMPANY, priority 2014, dated 2018).
Where two headings read alike, the source gives them in different places.

Legend:
Test in all cases: Test E pre-/postemergence plant response
Format in all cases: in vivo
[1] = test system: Italian ryegrass (Lolium multiflorum); settings: scale 0 to 100, read-out: Plant response rating, Ryegrass, Italian; for pest or weed control at 16 g/ha: 16 g ai/ha; for pest or weed control at 31 g/ha: 31 g ai/ha; for pest or weed control at 62 g/ha: 62 g ai/ha; for pest or weed control at 125 g/ha: 125 g ai/ha
How it was run: (§1)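 Visual scores on a 0–100 scale (100 = complete control) were assigned against untreated controls 7–21 days after treatment in a controlled environment. Compounds, formulated with solvent plus surfactant, were applied to pre-emergence silt-loam sowings or to 1- to 4-leaf plants (2–18 cm) in potting medium.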

[2] = test system: blackgrass (Alopecurus myosuroides); settings: scale 0 to 100, read-out: Plant response rating, Blackgrass; for pest or weed control at 16 g/ha: 16 g ai/ha; for pest or weed control at 31 g/ha: 31 g ai/ha; for pest or weed control at 62 g/ha: 62 g ai/ha; for pest or weed control at 125 g/ha: 125 g ai/ha
How it was run: as §1

[3] = test system: canarygrass (Phalaris minor); settings: scale 0 to 100, read-out: Plant response rating, Canarygrass; for pest or weed control at 16 g/ha: 16 g ai/ha; for pest or weed control at 31 g/ha: 31 g ai/ha; for pest or weed control at 62 g/ha: 62 g ai/ha; for pest or weed control at 125 g/ha: 125 g ai/ha
How it was run: as §1

[4] = test system: chickweed (common chickweed, Stellaria media); settings: scale 0 to 100, read-out: Plant response rating, Chickweed; for pest or weed control at 16 g/ha: 16 g ai/ha; for pest or weed control at 31 g/ha: 31 g ai/ha; for pest or weed control at 62 g/ha: 62 g ai/ha; for pest or weed control at 125 g/ha: 125 g ai/ha
How it was run: as §1

[5] = test system: deadnettle (henbit deadnettle, Lamium amplexicaule); settings: scale 0 to 100, read-out: Plant response rating, Deadnettle; for pest or weed control at 16 g/ha: 16 g ai/ha; for pest or weed control at 31 g/ha: 31 g ai/ha; for pest or weed control at 62 g/ha: 62 g ai/ha; for pest or weed control at 125 g/ha: 125 g ai/ha
How it was run: as §1

[6] = test system: field violet (Viola arvensis); settings: scale 0 to 100, read-out: Plant response rating, Field Violet; for pest or weed control at 16 g/ha: 16 g ai/ha; for pest or weed control at 31 g/ha: 31 g ai/ha; for pest or weed control at 62 g/ha: 62 g ai/ha; for pest or weed control at 125 g/ha: 125 g ai/ha
How it was run: as §1

[7] = test system: galium (catchweed bedstraw, Galium aparine); settings: scale 0 to 100, read-out: Plant response rating, Galium; for pest or weed control at 16 g/ha: 16 g ai/ha; for pest or weed control at 31 g/ha: 31 g ai/ha; for pest or weed control at 62 g/ha: 62 g ai/ha; for pest or weed control at 125 g/ha: 125 g ai/ha
How it was run: as §1

[8] = test system: lambsquarters (Chenopodium album); settings: scale 0 to 100, read-out: Plant response rating, Lambsquarters; for pest or weed control at 16 g/ha: 16 g ai/ha; for pest or weed control at 31 g/ha: 31 g ai/ha; for pest or weed control at 62 g/ha: 62 g ai/ha; for pest or weed control at 125 g/ha: 125 g ai/ha
How it was run: as §1

[9] = test system: pigweed (Amaranthus retroflexus); settings: scale 0 to 100, read-out: Plant response rating, Pigweed; for pest or weed control at 16 g/ha: 16 g ai/ha; for pest or weed control at 31 g/ha: 31 g ai/ha; for pest or weed control at 62 g/ha: 62 g ai/ha; for pest or weed control at 125 g/ha: 125 g ai/ha
How it was run: as §1

[10] = test system: wild radish (Raphanus raphanistrum); settings: scale 0 to 100, read-out: Plant response rating, Radish, Wild; for pest or weed control at 16 g/ha: 16 g ai/ha; for pest or weed control at 31 g/ha: 31 g ai/ha; for pest or weed control at 62 g/ha: 62 g ai/ha; for pest or weed control at 125 g/ha: 125 g ai/ha
How it was run: as §1

[11] = test system: winter barley (Hordeum vulgare); settings: scale 0 to 100, read-out: Plant response rating, Barley, Winter; for plant injury at 16 g/ha: 16 g ai/ha; for plant injury at 31 g/ha: 31 g ai/ha; for plant injury at 62 g/ha: 62 g ai/ha; for plant injury at 125 g/ha: 125 g ai/ha
How it was run: as §1

## FC(F)c1cc(-c2ccccc2Oc2ncc(Cl)cn2)on1 [Compound 53, 5-chloro-2-[2-[3-(difluoromethyl)-5-isoxazolyl]phenoxy]pyrimidine]
[1]; post-emergence, Postemergence
  pest or weed control at 16 g/ha: 0%
  pest or weed control at 31 g/ha: 0%
  pest or weed control at 62 g/ha: 5%
  pest or weed control at 125 g/ha: 5%
[1]; pre-emergence, Preemergence
  pest or weed control at 16 g/ha: 10%
  pest or weed control at 31 g/ha: 10%
  pest or weed control at 62 g/ha: 25%
  pest or weed control at 125 g/ha: 25%
[2]; post-emergence, Postemergence
  pest or weed control at 16 g/ha: 0%
  pest or weed control at 31 g/ha: 5%
  pest or weed control at 62 g/ha: 10%
  pest or weed control at 125 g/ha: 25%
[2]; pre-emergence, Preemergence
  pest or weed control at 16 g/ha: 10%
  pest or weed control at 31 g/ha: 10%
  pest or weed control at 62 g/ha: 25%
  pest or weed control at 125 g/ha: 30%
[3]; post-emergence, Postemergence
  pest or weed control at 16 g/ha: 5%
  pest or weed control at 31 g/ha: 10%
  pest or weed control at 62 g/ha: 25%
  pest or weed control at 125 g/ha: 40%
[3]; pre-emergence, Preemergence
  pest or weed control at 16 g/ha: 10%
  pest or weed control at 31 g/ha: 20%
  pest or weed control at 62 g/ha: 65%
  pest or weed control at 125 g/ha: 95%
[4]; post-emergence, Postemergence
  pest or weed control at 16 g/ha: 30%
  pest or weed control at 31 g/ha: 50%
  pest or weed control at 62 g/ha: 60%
  pest or weed control at 125 g/ha: 65%
[4]; pre-emergence, Preemergence
  pest or weed control at 16 g/ha: 100%
  pest or weed control at 31 g/ha: 100%
  pest or weed control at 62 g/ha: 100%
  pest or weed control at 125 g/ha: 100%
[5]; post-emergence, Postemergence
  pest or weed control at 16 g/ha: 20%
  pest or weed control at 31 g/ha: 30%
  pest or weed control at 62 g/ha: 60%
  pest or weed control at 125 g/ha: 65%
[5]; pre-emergence, Preemergence
  pest or weed control at 16 g/ha: 10%
  pest or weed control at 31 g/ha: 10%
  pest or weed control at 62 g/ha: 50%
  pest or weed control at 125 g/ha: 65%
[6]; post-emergence, Postemergence
  pest or weed control at 16 g/ha: 25%
  pest or weed control at 31 g/ha: 50%
  pest or weed control at 62 g/ha: 70%
  pest or weed control at 125 g/ha: 70%
[6]; pre-emergence, Preemergence
  pest or weed control at 16 g/ha: 50%
  pest or weed control at 31 g/ha: 25%
  pest or weed control at 62 g/ha: 60%
  pest or weed control at 125 g/ha: 100%
[7]; post-emergence, Postemergence
  pest or weed control at 16 g/ha: 75%
  pest or weed control at 31 g/ha: 75%
  pest or weed control at 62 g/ha: 75%
  pest or weed control at 125 g/ha: 75%
[7]; pre-emergence, Preemergence
  pest or weed control at 16 g/ha: 25%
  pest or weed control at 31 g/ha: 30%
  pest or weed control at 62 g/ha: 60%
  pest or weed control at 125 g/ha: 100%
[8]; post-emergence, Postemergence
  pest or weed control at 16 g/ha: 65%
  pest or weed control at 31 g/ha: 70%
  pest or weed control at 62 g/ha: 65%
  pest or weed control at 125 g/ha: 75%
[8]; pre-emergence, Preemergence
  pest or weed control at 16 g/ha: 60%
  pest or weed control at 31 g/ha: 75%
  pest or weed control at 62 g/ha: 100%
  pest or weed control at 125 g/ha: 100%
[9]; post-emergence, Postemergence
  pest or weed control at 16 g/ha: 85%
  pest or weed control at 31 g/ha: 85%
  pest or weed control at 62 g/ha: 90%
  pest or weed control at 125 g/ha: 90%
[9]; pre-emergence, Preemergence
  pest or weed control at 16 g/ha: 30%
  pest or weed control at 31 g/ha: 20%
  pest or weed control at 62 g/ha: 100%
  pest or weed control at 125 g/ha: 100%
[10]; post-emergence, Postemergence
  pest or weed control at 16 g/ha: 60%
  pest or weed control at 31 g/ha: 60%
  pest or weed control at 62 g/ha: 90%
  pest or weed control at 125 g/ha: 90%
[10]; pre-emergence, Preemergence
  pest or weed control at 16 g/ha: 50%
  pest or weed control at 31 g/ha: 70%
  pest or weed control at 62 g/ha: 100%
  pest or weed control at 125 g/ha: 90%
[11]; post-emergence, Postemergence
  plant injury at 16 g/ha: 5%
  plant injury at 31 g/ha: 5%
  plant injury at 62 g/ha: 5%
  plant injury at 125 g/ha: 10%
[11]; pre-emergence, Preemergence
  plant injury at 16 g/ha: 15%
  plant injury at 31 g/ha: 10%
  plant injury at 62 g/ha: 30%
  plant injury at 125 g/ha: 25%
